According to ChEMBL document CHEMBL5390303, “Discovery of Potent and Oral Bioavailable MAT2A Inhibitors for the Treatment of MTAP-Deleted Tumors” (ACS Med Chem Lett, 2023):
Blank lines part the entries; values can stand above or below the molecule they belong to.

Legend:
[1] = molecular target: S-adenosylmethionine synthase isoform type-2 (Homo sapiens, UniProt P31153); test: Inhibition of MAT2A (unknown origin) using L-methionine as substrate preincubated for 30 mins followed by substrate addition measured after 60 mins by colorimetric assay
[2] = test system: HCT-116; test: Antitumor activity against MTAP-knockout human HCT-116 cells xenografted in Nu/Nu mouse model assessed as inhibition of tumor growth at 50 mg/kg, po qd measured after 21 days relative to control; assay type: functional; settings: HCT-116, 504 h, time 21 day, read-out: TGI
[3] = Cmax in ICR mouse plasma at 10 mg/kg, IG measured after 24 hrs by LC-MS/MS analysis; assay type: ADME, organism-based; design: dose 10 mg/kg, time 24 hrs, route ig; settings: po
[4] = Half life in ICR mouse plasma at 10 mg/kg, IG measured after 24 hrs by LC-MS/MS analysis; assay type: ADME, organism-based; settings: po
[5] = Tmax in ICR mouse plasma at 10 mg/kg, IG measured after 24 hrs by LC-MS/MS analysis; assay type: ADME, organism-based; settings: po
[6] = AUClast in ICR mouse plasma at 10 mg/kg, IG incubated for 24 hrs by LC-MS/MS analysis; assay type: ADME, organism-based; design: dose 10 mg/kg, time 24 hrs, route ig; settings: po
[7] = Metabolic stability in human liver microsomes assessed as intrinsic clearance; assay type: ADME, Microsome; settings: read-out: CLH
[8] = Plasma protein binding in rat assessed as unbound fraction at 1 uM incubated for 6 hrs by LC-MS/MS based rapid equlibrium dialysis method; assay type: ADME, cell-free
[9] = molecular target: Cytochrome P450 2C19 (Homo sapiens, UniProt P33261); test: Inhibition of human liver microsomes CYP2C19 incubated for 5 mins with compound followed by substrate and NADPH addition measured after 10 mins by LC-MS/MS analysis; assay type: ADME, Microsome
[10] = Plasma protein binding in dog assessed as unbound fraction at 1 uM incubated for 6 hrs by LC-MS/MS based rapid equlibrium dialysis method; assay type: ADME, cell-free, Canis lupus familiaris
[11] = test system: HCT-116; test: Antitumor activity against MTAP-knockout human HCT-116 cells xenografted in Nu/Nu mouse model assessed as tumor growth inhibition at 20 mg/kg, po qd measured after 21 days relative to control; assay type: functional; settings: HCT-116, 504 h, time 21 day, read-out: TGI
[12] = Tmax in male Beagle dog at 3 mg/kg, po incubated for 24 hrs by LC-MS/MS analysis; assay type: ADME, organism-based, Canis lupus familiaris; settings: in vivo
[13] = Tmax in male Sprague-Dawley rat plasma at 10 mg/kg, po incubated for 24 hrs by LC-MS/MS analysis; assay type: ADME, organism-based
[14] = Plasma protein binding in human assessed as unbound fraction at 1 uM incubated for 6 hrs by LC-MS/MS based rapid equlibrium dialysis method relative to control; assay type: ADME, cell-free
[15] = molecular target: Cytochrome P450 3A4 (Homo sapiens, UniProt P08684); test: Inhibition of human liver microsomes CYP3A4 using Midazolam as substrate incubated for 5 mins with compound followed by substrate and NADPH addition measured after 5 mins by LC-MS/MS analysis; assay type: ADME, Microsome
[16] = molecular target: Cytochrome P450 2C9 (Homo sapiens, UniProt P11712); test: Inhibition of human liver microsomes CYP2C9 using Diclofenac as substrate incubated for 5 mins with compound followed by substrate and NADPH addition measured after 10 mins by LC-MS/MS analysis; assay type: ADME, Microsome
[17] = test system: HCT-116; test: Antitumor activity against MTAP-knockout human HCT-116 cells xenografted in Nu/Nu mouse model assessed as reduction in SAM concentration at 20 mg/kg, po qd administered for 21 days measured after 10 hrs post last dose relative to control; assay type: functional; design: scale not given: the % may be the effect or the level left; settings: time 514 hrs
[18] = test system: HCT-116; test: Antitumor activity against MTAP-knockout human HCT-116 cells xenografted in Nu/Nu mouse model assessed as tumor growth inhibition at 10 mg/kg, po qd measured after 21 days relative to control; assay type: functional; settings: HCT-116, 504 h, time 21 day, read-out: TGI
[19] = Half life in male Sprague-Dawley rat plasma at 10 mg/kg, po incubated for 24 hrs by LC-MS/MS analysis; assay type: ADME, organism-based
[20] = Half life in male Beagle dog at 3 mg/kg, po incubated for 24 hrs by LC-MS/MS analysis; assay type: ADME, organism-based, Canis lupus familiaris; settings: in vivo
[21] = AUC(0 to last) in male Sprague-Dawley rat at 10 mg/kg, po incubated for 24 hrs by LC-MS/MS analysis; assay type: ADME, organism-based; design: dose 10 mg/kg, time 24 hrs, route po; settings: in vivo
[22] = molecular target: Cytochrome P450 2D6 (Homo sapiens, UniProt P10635); test: Inhibition of human liver microsomes CYP2D6 using Dextromethorphan as substrate incubated for 5 mins with compound followed by substrate and NADPH addition measured after 10 mins by LC-MS/MS analysis; assay type: ADME, Microsome
[23] = Toxicity in Nu/Nu mouse xenografted with MTAP-knockout human HCT-116 cells assessed as maximum body weight loss at 10 to 20 mg/kg, po qd measured after 21 days; assay type: organism-based; settings: in vivo, 504 h, dose 10-20 mg/kg, time 21 day
[24] = test system: HCT-116; test: Antiproliferative activity against MTAP knockout human HCT-116 assessed as inhibition of cell proliferation incubated for 6 days by alamar blue reagent based analysis; assay type: functional; settings: HCT-116, 144 h
[25] = AUClast in male Beagle dog at 3 mg/kg, po incubated for 24 hrs by LC-MS/MS analysis; assay type: ADME, organism-based, Canis lupus familiaris; design: dose 3 mg/kg, time 24 hrs, route po; settings: in vivo
[26] = Cmax in male Sprague-Dawley rat plasma at 10 mg/kg, po incubated for 24 hrs by LC-MS/MS analysis; assay type: ADME, organism-based; design: time 24 hrs, dose 10 mg/kg, route po
[27] = Cmax in male Beagle dog at 3 mg/kg, po incubated for 24 hrs by LC-MS/MS analysis; assay type: ADME, organism-based, Canis lupus familiaris; design: dose 3 mg/kg, time 24 hrs, route po; settings: in vivo
[28] = Plasma protein binding in mouse assessed as unbound fraction at 1 uM incubated for 6 hrs by LC-MS/MS based rapid equlibrium dialysis method; assay type: ADME, cell-free

Sequence of S-adenosylmethionine synthase isoform type-2 (P31153 whole entry, canonical isoform): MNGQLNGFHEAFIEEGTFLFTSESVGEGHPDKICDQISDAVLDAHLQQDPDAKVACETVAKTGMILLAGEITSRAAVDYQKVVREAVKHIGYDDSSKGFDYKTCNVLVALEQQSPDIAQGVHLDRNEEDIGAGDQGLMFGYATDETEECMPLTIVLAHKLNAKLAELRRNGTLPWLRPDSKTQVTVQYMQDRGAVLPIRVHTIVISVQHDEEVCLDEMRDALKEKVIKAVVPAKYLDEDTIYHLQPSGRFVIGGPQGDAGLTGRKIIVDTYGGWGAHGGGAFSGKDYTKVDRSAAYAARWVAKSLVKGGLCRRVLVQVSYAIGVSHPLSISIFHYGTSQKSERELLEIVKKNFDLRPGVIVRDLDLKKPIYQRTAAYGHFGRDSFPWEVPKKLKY
Sequence of Cytochrome P450 2C9 (P11712 whole entry): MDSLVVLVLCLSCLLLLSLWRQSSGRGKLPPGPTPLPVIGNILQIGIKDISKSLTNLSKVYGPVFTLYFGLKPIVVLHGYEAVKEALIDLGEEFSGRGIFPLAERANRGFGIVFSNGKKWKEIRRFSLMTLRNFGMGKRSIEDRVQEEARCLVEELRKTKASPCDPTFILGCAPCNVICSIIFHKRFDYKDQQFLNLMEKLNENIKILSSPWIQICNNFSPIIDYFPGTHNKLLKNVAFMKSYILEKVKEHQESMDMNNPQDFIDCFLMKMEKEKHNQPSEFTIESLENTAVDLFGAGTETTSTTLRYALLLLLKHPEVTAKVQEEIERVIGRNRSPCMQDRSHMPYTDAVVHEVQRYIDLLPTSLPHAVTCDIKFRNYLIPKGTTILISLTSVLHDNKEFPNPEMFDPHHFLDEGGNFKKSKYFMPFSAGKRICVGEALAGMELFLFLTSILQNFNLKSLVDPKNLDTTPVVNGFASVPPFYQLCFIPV
Sequence of Cytochrome P450 2D6 (P10635 whole entry): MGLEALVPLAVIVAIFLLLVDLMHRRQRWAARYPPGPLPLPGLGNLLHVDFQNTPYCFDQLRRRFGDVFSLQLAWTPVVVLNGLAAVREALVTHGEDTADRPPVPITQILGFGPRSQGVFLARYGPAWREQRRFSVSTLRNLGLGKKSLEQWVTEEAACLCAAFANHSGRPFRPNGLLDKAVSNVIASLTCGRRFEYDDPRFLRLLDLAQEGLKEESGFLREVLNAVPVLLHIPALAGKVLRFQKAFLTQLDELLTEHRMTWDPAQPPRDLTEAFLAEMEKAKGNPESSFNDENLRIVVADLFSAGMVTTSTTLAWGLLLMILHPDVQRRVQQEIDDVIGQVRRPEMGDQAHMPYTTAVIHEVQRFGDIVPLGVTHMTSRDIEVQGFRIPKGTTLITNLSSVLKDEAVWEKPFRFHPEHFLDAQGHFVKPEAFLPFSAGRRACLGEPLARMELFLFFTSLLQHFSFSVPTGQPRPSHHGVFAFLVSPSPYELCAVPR
Sequence of Cytochrome P450 3A4 (P08684 whole entry): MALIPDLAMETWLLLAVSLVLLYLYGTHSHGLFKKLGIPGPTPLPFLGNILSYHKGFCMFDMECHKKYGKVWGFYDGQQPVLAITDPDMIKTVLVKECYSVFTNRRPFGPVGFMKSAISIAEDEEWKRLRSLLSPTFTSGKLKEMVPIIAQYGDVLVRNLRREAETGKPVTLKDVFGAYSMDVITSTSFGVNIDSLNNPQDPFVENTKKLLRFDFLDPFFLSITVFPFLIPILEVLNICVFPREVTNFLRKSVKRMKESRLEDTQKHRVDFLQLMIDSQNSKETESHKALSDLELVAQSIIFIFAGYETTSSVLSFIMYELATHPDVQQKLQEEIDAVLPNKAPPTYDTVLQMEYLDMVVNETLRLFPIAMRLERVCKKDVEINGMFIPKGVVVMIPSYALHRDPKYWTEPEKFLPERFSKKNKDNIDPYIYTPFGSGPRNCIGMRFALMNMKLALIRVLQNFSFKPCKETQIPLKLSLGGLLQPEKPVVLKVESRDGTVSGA
Sequence of Cytochrome P450 2C19 (P33261 whole entry): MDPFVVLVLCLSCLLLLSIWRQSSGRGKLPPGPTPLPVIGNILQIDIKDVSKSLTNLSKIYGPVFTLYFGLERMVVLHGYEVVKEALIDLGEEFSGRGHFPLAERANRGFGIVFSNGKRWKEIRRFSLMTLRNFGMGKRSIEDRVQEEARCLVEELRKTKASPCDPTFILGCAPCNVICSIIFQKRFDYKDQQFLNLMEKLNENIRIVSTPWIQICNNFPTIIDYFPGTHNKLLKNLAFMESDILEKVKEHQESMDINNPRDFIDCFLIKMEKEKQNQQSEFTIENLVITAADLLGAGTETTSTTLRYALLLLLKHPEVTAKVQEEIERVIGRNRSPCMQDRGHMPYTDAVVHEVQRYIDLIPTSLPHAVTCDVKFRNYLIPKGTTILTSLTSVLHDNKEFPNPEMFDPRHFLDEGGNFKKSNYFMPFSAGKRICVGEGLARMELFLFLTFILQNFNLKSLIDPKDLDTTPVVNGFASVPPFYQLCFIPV

SMILES: CNc1nc(=O)c(-c2c(F)cccc2F)c2cc(C(F)(F)F)ccn12
IC50 [1]: 65 nM

SMILES: CNc1nc(=O)c(-c2ccc(C)cc2)c2cc(C(F)(F)F)ccn12
IC50 [1]: 347 nM

SMILES: CNc1nc(=O)c(-c2ccccc2F)c2cc(C(F)(F)F)ccn12
IC50 [1]: 45 nM

SMILES: O=c1nc(NC2CCC2)n2ccc(C(F)(F)F)cc2c1-c1ccccc1F
IC50 [1]: 121 nM

SMILES: O=c1nc(NCC(F)F)n2ccc(C(F)(F)F)cc2c1-c1ccccc1F
IC50 [1]: 119 nM

SMILES: CNc1nc(=O)n(-c2ccccc2Cl)c2c1CCN(C)C2
IC50 [1]: > 10000 nM

SMILES: CNc1nc(=O)c(-c2cccc(C)c2)c2cc(C(F)(F)F)ccn12
IC50 [1]: 60 nM

SMILES: COc1ccc(-c2c(Nc3ccccn3)[nH]c3c(C4=CCCCC4)c(-c4ccccc4)nn3c2=O)cc1
inhibition in vivo at 50 mg/kg [2]: 43%

SMILES: CNc1nc(=O)c(-c2ccccc2Cl)c2cc(C)ccn12
IC50 [1]: 143 nM

SMILES: O=c1nc(NC2CC2)n2ccc(C(F)(F)F)cc2c1-c1cccc(O)c1F
IC50 [1]: 31 nM | Cmax [3]: 3960 ng/mL | half-life [4]: 7.7 h | Tmax [5]: 0.33 h | AUC(0-t) at 24 h [6]: 8880 ng·h/mL

SMILES: CNc1nc(=O)c(-c2cccc(Cl)c2)c2cc(C(F)(F)F)ccn12
IC50 [1]: 107 nM

SMILES: CC(C)Nc1nc(=O)c(-c2ccccc2F)c2cc(C(F)(F)F)ccn12
IC50 [1]: 80 nM

SMILES: O=c1nc(NC2CC2)n2ccc(C(F)(F)F)cc2c1-c1ccccc1F
IC50 [1]: 120 nM

SMILES: O=c1nc(NC2CC2)n2ccc(C(F)(F)F)cc2c1-c1cccnc1F
CLint scaled [7]: 1.4 mL/min/kg | fraction unbound at 6 h, 1 µM [8]: 0.329 | IC50 [9]: > 10000 nM | IC50 [1]: 40 nM | fraction unbound at 6 h, 1 µM [10]: 0.325 | inhibition in vivo at 20 mg/kg [11]: 60% | Cmax [3]: 16200 ng/mL | Tmax [12]: 1.3 h | Tmax [13]: 3.3 h | fraction unbound at 6 h, 1 µM [14]: 0.216 | IC50 [15]: > 10000 nM | IC50 [16]: > 10000 nM | Activity [17]: 79% | inhibition in vivo at 10 mg/kg [18]: 48% | half-life [19]: 3 h | half-life [20]: 2.6 h | AUC(0-t) at 24 h [21]: 16200 ng·h/mL | IC50 [22]: > 10000 nM | half-life [4]: 3.3 h | Activity [23]: 11% | IC50 [24]: 273 nM | AUC(0-t) at 24 h [25]: 9310 ng·h/mL | Cmax [26]: 2820 ng/mL | Tmax [5]: 0.67 h | Cmax [27]: 1680 ng/mL | fraction unbound at 6 h, 1 µM [28]: 0.091 | AUC(0-t) at 24 h [6]: 34000 ng·h/mL

Results, then the molecule that gave them:

IC50 [1]: > 10000 nM
SMILES: CNc1nc(=O)c(-c2ccccc2Cl)c2cc(C(F)(F)F)cnn12

IC50 [1]: 268 nM
SMILES: CNc1nc(=O)n(-c2ccccc2Cl)c2cc(C(F)(F)F)sc12

IC50 [1]: 192 nM
SMILES: O=c1nc(N[C@H]2C[C@H](O)C2)n2ccc(C(F)(F)F)cc2c1-c1ccccc1F

IC50 [1]: 199 nM
SMILES: CNc1nc(=O)c(-c2cccc(C#N)c2)c2cc(C(F)(F)F)ccn12

IC50 [1]: 252 nM
SMILES: CNc1cc(=O)n(-c2ccccc2Cl)c2nc(C(F)(F)F)ccc12

IC50 [1]: 46 nM
SMILES: O=c1nc(NC2CC2)n2ccc(C(F)(F)F)cc2c1-c1cccc(F)c1

IC50 [1]: 65 nM
SMILES: CNc1nc(=O)c(-c2ccccc2)c2cc(C(F)(F)F)ccn12

IC50 [1]: 49 nM
SMILES: CNc1nc(=O)c(-c2ccccc2Cl)c2cc(C(F)(F)F)ccn12

IC50 [1]: 49 nM
SMILES: CNc1nc(=O)c(-c2ccccc2Cl)c2cc(C(F)F)ccn12

IC50 [1]: 2550 nM
SMILES: O=C(C1CC1)N1CC(=O)N(c2ccccc2Cl)c2cc(C(F)(F)F)ccc21

IC50 [1]: 531 nM
SMILES: O=c1nc(N2CCCC2)n2ccc(C(F)(F)F)cc2c1-c1ccccc1F

IC50 [1]: 68 nM
SMILES: CNc1nc(=O)c(-c2ccccc2C(C)C)c2cc(C(F)(F)F)ccn12

IC50 [1]: 53 nM
SMILES: CNc1nc(=O)c(-c2ccccc2Cl)c2cc(C3CC3)ccn12

IC50 [1]: 42 nM
SMILES: CNc1nc(=O)c(-c2cccc(F)c2)c2cc(C(F)(F)F)ccn12
